Several values for one entry are separate records, joined by “and”; a condition that tells them apart may be missing. Identical values can stand only once. Activity calls are given as the source filed them. The rule behind the calls is not given here.
Tests used:
Leishmania infantum [1] = assay: Anti-leishmanial activity against Leishmania infantum BCN150 promastigotes infected in Syrian hamster assessed as decrease in anti-leishmanial IgG level at 20 mg/kg/day, po for 10 days by ELISA; assay type: functional, organism-based
[2] = Plasma concentration in syrian hamster infected with Leishmania infantum BCN150 promastigote at 20 mg/kg/day, po for 10 days; assay type: ADME, organism-based, Mesocricetus auratus
[3] = Toxicity in Syrian hamster infected with Leishmania infantum BCN150 promastigotes assessed as effect on plasma creatinine level at 20 mg/kg/day, po for 10 days measured after the last treatment; assay type: organism-based, Mesocricetus auratus; settings: in vivo, 240 h
Leishmania infantum [4] = assay: Antileishmanial activity against Leishmania infantum amastigotes infected in Syrian hamster assessed as reduction in parasite load in spleen at 20 mg/kg/day, po for 10 days relative to control; assay type: functional; settings: 240 h
[5] = Toxicity in Syrian hamster infected with Leishmania infantum BCN150 promastigotes assessed as spleen weight at 20 mg/kg/day, po for 10 days (reference value: 0.182 +/- 0.036 g); assay type: organism-based, Mesocricetus auratus; settings: in vivo, 240 h
[6] = Toxicity in Syrian hamster infected with Leishmania infantum BCN150 promastigotes assessed as effect on plasma creatinine level at 40 mg/kg/day, po for 10 days formulated with 8% v/v DMSO; assay type: organism-based, Mesocricetus auratus; settings: in vivo, 240 h
Leishmania infantum [7] = assay: Antileishmanial activity against Leishmania infantum amastigotes infected in Syrian hamster assessed as reduction in parasite load at 40 mg/kg/day, po for 10 days formulated with 50% v/v cyclodextrin relative to control; assay type: functional; settings: 240 h
[8] = Selectivity index, ratio of CC50 for human THP1 cells to EC50 for luciferase expressing intracellular amastigote stage of Leishmania infantum infected in human THP1 cells; assay type: toxicity, cell-based; settings: read-out: Ratio CC50/EC50
hERG = assay: Selectivity ratio of IC50 for human ERG to EC50 for antileishmanial activity against luciferase expressing intracellular amastigote stage of Leishmania infantum infected in human THP1 cells; assay type: toxicity, cell-based
Leishmania infantum [9] = assay: Antileishmanial activity against Leishmania infantum amastigotes infected in Syrian hamster assessed as parasite load within liver at 40 mg/kg/day, po for 10 days formulated with 50% v/v cyclodextrin (reference value: 5000000.000 +/- 1673320.053/g); assay type: functional
Leishmania infantum [10] = assay: Antileishmanial activity against Leishmania infantum amastigotes infected in Syrian hamster assessed as reduction in parasite load at 40 mg/kg/day, po for 10 days formulated with 8% v/v DMSO relative to control; assay type: functional; settings: 240 h
[11] = Chemical stability of compound in PBS assessed as decrease in absorbance at 20 uM at pH 8 measured after air bubbling by UV-vis spectrophotometry analysis; assay type: physicochemical; settings: buffer, pH 8, 20 µM
[12] = Chemical stability of compound in PBS at 20 uM at pH 8 exposed to 2-mins nitrogen bubbling followed by supplementation with human serum albumin measured for 6 hrs by UV-vis spectrophotometry analysis; assay type: physicochemical
[13] = Chemical stability of compound in PBS assessed as decrease in absorbance at 60 uM at pH 7 to 8 measured after exposure to daylight by UV-vis spectrophotometry analysis; assay type: physicochemical; settings: buffer, pH 7, 60 µM
Leishmania infantum [14] = assay: Antileishmanial activity against Leishmania infantum amastigotes infected in Syrian hamster assessed as parasite load within liver at 40 mg/kg/day, po for 10 days formulated with 8% v/v DMSO (reference value: 5333333.333 +/- 3011090.611/g); assay type: functional
[15] = Toxicity in Syrian hamster infected with Leishmania infantum BCN150 promastigotes assessed as liver weight at 40 mg/kg/day, po for 10 days formulated with 50% v/v cyclodextrin (reference value: 5.892 +/- 0.446 g); assay type: organism-based, Mesocricetus auratus; settings: in vivo, 240 h
[16] = Toxicity in Syrian hamster infected with Leishmania infantum BCN150 promastigotes assessed as effect on alkaline phosphatase level at 40 mg/kg/day, po for 10 days formulated with 30 to 50% v/v cyclodextrin measured after the last treatment; assay type: organism-based, Mesocricetus auratus; settings: in vivo, 240 h
[17] = AUC (total) in BALB/c mouse at 1 mg/kg, iv measured upto 72 hrs by snapshot method; assay type: ADME, organism-based; set-up: dose 1 mg/kg, time < 72 hr, route intravenous; settings: in vivo
[18] = Tmax in BALB/c mouse at 1 mg/kg, iv measured upto 72 hrs by snapshot method; assay type: ADME, organism-based; settings: in vivo
[19] = Toxicity in Syrian hamster infected with Leishmania infantum BCN150 promastigotes assessed as effect on AST level at 40 mg/kg/day, po for 10 days formulated with 30 to 50% v/v cyclodextrin measured after the last treatment; assay type: organism-based, Mesocricetus auratus; settings: in vivo, 240 h
CYP2C9 = CYP2C9 (Homo sapiens, UniProt P11712); assay: Inhibition of human microsomal CYP2C9 expressed in baculovirus infected insect cells at 10 uM using luciferin-H as substrate preincubated with enzyme/substrate mixture for 30 mins followed by further incubation with NADPH for 30 mins by CYP450 luciferase Glo assay relative to control; assay type: ADME; settings: probe luciferin-H
[20] = Toxicity in Syrian hamster infected with Leishmania infantum BCN150 promastigotes assessed as effect on plasma urea level at 40 mg/kg/day, po for 10 days formulated with 8% v/v DMSO; assay type: organism-based, Mesocricetus auratus; settings: in vivo, 240 h
[21] = Binding affinity to pepsin in porcine gastric mucosa in phosphate buffer assessed as compound lifetime at 530 nm at 5 uM measured at pH 8 by fluorescence emission spectrum analysis; assay type: ADME, Sus scrofa; settings: pig
[22] = Toxicity in Syrian hamster infected with Leishmania infantum BCN150 promastigotes assessed as effect on AST level at 40 mg/kg/day, po for 10 days formulated with 8% v/v DMSO measured after the last treatment; assay type: organism-based, Mesocricetus auratus; settings: in vivo, 240 h
Leishmania donovani [23] = assay: Antileishmanial activity against antimony sensitive Leishmania donovani BPK091 promastigotes infected in C57BL/6 mouse bone marrow-derived macrophages assessed as reduction in parasite load at 5 uM treated with compound at 24 hrs post-infection measured after 72 hrs post infection by q-PCR analysis relative to control; assay type: functional
[24] = AUC (total) in BALB/c mouse at 20 mg/kg, po measured upto 72 hrs by snapshot method; assay type: ADME, organism-based; set-up: time < 72 hr, dose 20 mg/kg, route oral; settings: in vivo
Leishmania donovani [25] = assay: Antileishmanial activity against Leishmania donovani BPK091 promastigotes transfected with Leishmania donovani BPK190 genomic cosmid DNA assessed as decrease in parasite growth at IC75 concentration incubated for 3 days under selective pressure and selection cycle repeated for 25 passages and measured at 43 to 78 days of selection; assay type: functional, organism-based
[26] = Toxicity in Syrian hamster infected with Leishmania infantum BCN150 promastigotes assessed as effect on ALT level at 40 mg/kg/day, po for 10 days formulated with 8% v/v DMSO measured after the last treatment; assay type: organism-based, Mesocricetus auratus; settings: in vivo, 240 h
[27] = Toxicity in Syrian hamster infected with Leishmania infantum BCN150 promastigotes assessed as spleen lesions at 40 mg/kg/day, po for 10 days formulated with 8% v/v DMSO measured under necropsy; assay type: organism-based, Mesocricetus auratus; settings: in vivo, 240 h

Sequence of CYP2C9 (P11712 whole entry): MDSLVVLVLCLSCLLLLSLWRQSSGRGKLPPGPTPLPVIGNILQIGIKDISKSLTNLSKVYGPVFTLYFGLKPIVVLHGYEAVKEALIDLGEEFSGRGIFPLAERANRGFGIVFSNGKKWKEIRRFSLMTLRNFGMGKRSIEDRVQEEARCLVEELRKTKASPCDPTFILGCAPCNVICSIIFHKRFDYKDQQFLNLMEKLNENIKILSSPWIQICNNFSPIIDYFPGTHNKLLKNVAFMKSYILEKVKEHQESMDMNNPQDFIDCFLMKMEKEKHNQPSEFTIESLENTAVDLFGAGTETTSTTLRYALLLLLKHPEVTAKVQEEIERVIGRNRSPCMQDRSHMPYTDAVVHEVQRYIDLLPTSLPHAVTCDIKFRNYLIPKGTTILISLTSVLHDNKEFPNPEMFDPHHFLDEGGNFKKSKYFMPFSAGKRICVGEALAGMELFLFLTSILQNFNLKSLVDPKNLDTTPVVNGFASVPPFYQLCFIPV

CCCCCCCCCCCCCCCCOP(=O)([O-])OCC[N+](C)(C)C [MILTEFOSINE]
inhibition (Leishmania infantum [1]): Active
concentration at 240 h [2]: 59.3 µM
Activity [3]: Non-Toxic
inhibition in vivo at 20 mg/kg/day (Leishmania infantum [4]): 97.3%
Activity [5]: 0.191 g

COc1ccc2oc(-c3csc4ccccc34)c(O)c(=O)c2c1
Activity [6]: Non-Toxic
inhibition in vivo at 40 mg/kg/day (Leishmania infantum [7]): 35.8%
selectivity ratio [8]: 17
selectivity ratio (hERG): 50
Activity (Leishmania infantum [9]): 4000000 g⁻¹
inhibition in vivo at 40 mg/kg/day (Leishmania infantum [10]): 25.9%
Stability [11]: Unstable
Stability [12]: Stable
Stability [13]: Unstable
Activity (Leishmania infantum [14]): 4285714.286 g⁻¹
Activity [15]: 5.522 g
Activity [16]: Non-Toxic
AUC at 72 h [17]: 16.3 µM·h and 5280 ng·h/mL
Tmax [18]: 4.8 min
Activity [19]: Non-Toxic
inhibition at 0.5 h, 10 µM (CYP2C9): -10%
Activity [20]: Non-Toxic
Time [21]: 5.5 nanoseconds
Activity [22]: Non-Toxic
inhibition at 5 µM (Leishmania donovani [23]): 36%
AUC at 72 h [24]: 38.5 µM·h and 12500 ng·h/mL
inhibition (Leishmania donovani [25]): Active
Activity [26]: Non-Toxic
Activity [27]: Non-Toxic

Source: ChEMBL document CHEMBL4311972, “Discovery of a benzothiophene-flavonol halting miltefosine and antimonial drug resistance in Leishmania parasites through the application of medicinal chemistry, screening and genomics” (Eur J Med Chem, 2019)
